Experimental data published in patent US12226409B2, “Treatment of hepatocellular carcinoma” (Eisai R&D Management Co., Ltd., priority 2017, dated 2025).

Experiments:
CYP2C9 = CYP2C9 (Homo sapiens, UniProt P11712); assay: In vitro CYP inhibition; assay type: in vitro ADME
CYP2D6 = CYP2D6 (Homo sapiens, UniProt P10635); assay: In vitro CYP inhibition; assay type: in vitro ADME
[1] = tested on: lenvatinib-treated subjects; assay: Clinical studies with lenvatinib, posterior reversible encephalopathy syndrome; details: human, in vivo
Source text: Mild to severe hypertension also could be present. A magnetic resonance imaging (MRI) was necessary to confirm the diagnosis of PRES. In subjects with signs or symptoms of PRES, appropriate measures were to be taken to control blood pressure, and instructions in Table 6 were followed.

[2] = tested on: unresectable hepatocellular carcinoma (HCC); assay: REFLECT study, efficacy per independent review; assay type: in vivo, human
Procedure: The efficacy of LENVIMA was evaluated in a randomized, open-label, multicenter, international study (REFLECT; […]) conducted in patients with previously untreated unresectable hepatocellular carcinoma (HCC).

CYP1A2 = target: T1, CYP1A2 (Homo sapiens, UniProt P05177); assay: In vitro CYP inhibition; assay type: in vitro ADME
T1 sequence (P05177 1-516): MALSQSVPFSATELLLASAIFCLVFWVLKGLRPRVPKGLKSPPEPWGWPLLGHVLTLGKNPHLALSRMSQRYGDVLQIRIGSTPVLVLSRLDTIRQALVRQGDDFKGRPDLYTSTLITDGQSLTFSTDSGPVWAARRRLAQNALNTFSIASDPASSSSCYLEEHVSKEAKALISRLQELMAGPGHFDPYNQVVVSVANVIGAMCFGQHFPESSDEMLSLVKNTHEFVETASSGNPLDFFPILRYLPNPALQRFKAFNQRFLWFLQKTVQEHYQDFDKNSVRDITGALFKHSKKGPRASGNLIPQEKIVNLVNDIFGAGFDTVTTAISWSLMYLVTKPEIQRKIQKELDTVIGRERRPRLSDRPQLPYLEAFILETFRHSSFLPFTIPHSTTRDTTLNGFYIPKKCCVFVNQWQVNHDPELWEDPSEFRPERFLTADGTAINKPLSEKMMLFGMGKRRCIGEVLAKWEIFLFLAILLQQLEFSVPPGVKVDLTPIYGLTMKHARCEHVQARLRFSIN

CYP3A4 = target: T2, CYP3A4 (Homo sapiens, UniProt P08684); assay: Drug interaction with midazolam (CYP3A4 substrate); details: projected
T2 construct: from tissue; host or cells: human subjects (in vivo)

CYP3A [3] = assay: In vitro CYP induction; assay type: in vitro ADME
[4] = tested on: patients with unresectable HCC; assay: Quality of life, EORTC QLQ-C30 and QLQ-HCC18 questionnaires; assay type: in vivo, human; details: role functioning, pain, diarrhea (QLQ-C30); nutrition, body image (QLQ-HCC18)
Procedure: The primary endpoint was overall survival.
Tumors were evaluated in accordance with mRECIST (Lencioni R., Semin Liver Dis., 30(1):52-60, 2010); RECIST 1.1 was applied for nonhepatic lesions (Eisenhauer, Eur J Cancer, 45(2):228-47, 2009). The liver was examined with computed tomography or magnetic resonance imaging was performed using a triphasic scanning technique. Assessments were performed every 8 weeks until disease progression. Quality of life questionnaires were administered at baseline, on day 1 of each subsequent treatment cycle, and at the off-treatment visit.

CYP2C19 = CYP2C19 (Homo sapiens, UniProt P33261); assay: In vitro CYP inhibition; assay type: in vitro ADME
CYP3A [5] = assay: In vitro CYP inhibition; assay type: in vitro ADME
[6] = tested on: patients with unresectable HCC; details: human, in vivo
Source text: Randomization was stratified according to region (Asia-Pacific or Western regions), macroscopic portal vein invasion and/or extrahepatic spread (yes or no), Eastern Cooperative Oncology Group performance status (0 or 1), and body weight (<60 kg or ≥60 kg).
Safety assessments included recording of vital signs, hematologic and biochemical laboratory testing, urinalysis, and electrocardiography.

T2 sequence (P08684 whole entry): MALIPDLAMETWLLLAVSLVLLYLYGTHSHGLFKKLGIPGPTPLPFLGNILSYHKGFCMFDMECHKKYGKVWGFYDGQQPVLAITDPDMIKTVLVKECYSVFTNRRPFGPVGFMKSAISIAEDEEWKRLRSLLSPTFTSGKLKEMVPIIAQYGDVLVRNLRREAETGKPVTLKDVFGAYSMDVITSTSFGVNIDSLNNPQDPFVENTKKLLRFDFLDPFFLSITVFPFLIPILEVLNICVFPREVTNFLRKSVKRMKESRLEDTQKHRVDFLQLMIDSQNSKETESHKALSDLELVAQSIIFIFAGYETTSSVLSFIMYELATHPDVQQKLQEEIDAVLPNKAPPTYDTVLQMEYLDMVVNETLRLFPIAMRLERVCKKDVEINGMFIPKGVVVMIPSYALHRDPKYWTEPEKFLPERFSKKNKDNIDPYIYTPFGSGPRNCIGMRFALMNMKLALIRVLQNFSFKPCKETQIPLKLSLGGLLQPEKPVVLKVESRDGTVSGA
Sequence of CYP2D6 (P10635 whole entry): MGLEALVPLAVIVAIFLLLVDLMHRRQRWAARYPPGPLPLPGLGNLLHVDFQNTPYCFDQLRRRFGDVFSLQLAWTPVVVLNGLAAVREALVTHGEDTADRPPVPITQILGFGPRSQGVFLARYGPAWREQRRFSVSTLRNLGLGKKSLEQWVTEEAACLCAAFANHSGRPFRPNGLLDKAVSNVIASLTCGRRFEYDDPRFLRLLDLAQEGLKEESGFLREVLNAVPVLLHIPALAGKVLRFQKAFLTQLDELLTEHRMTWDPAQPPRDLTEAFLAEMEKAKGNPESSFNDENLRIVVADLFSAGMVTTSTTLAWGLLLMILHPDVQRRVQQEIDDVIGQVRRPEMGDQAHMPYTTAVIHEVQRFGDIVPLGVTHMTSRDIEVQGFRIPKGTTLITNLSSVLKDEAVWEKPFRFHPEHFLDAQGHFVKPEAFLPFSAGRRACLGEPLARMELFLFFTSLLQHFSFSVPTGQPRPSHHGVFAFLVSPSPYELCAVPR
Sequence of CYP2C19 (P33261 whole entry): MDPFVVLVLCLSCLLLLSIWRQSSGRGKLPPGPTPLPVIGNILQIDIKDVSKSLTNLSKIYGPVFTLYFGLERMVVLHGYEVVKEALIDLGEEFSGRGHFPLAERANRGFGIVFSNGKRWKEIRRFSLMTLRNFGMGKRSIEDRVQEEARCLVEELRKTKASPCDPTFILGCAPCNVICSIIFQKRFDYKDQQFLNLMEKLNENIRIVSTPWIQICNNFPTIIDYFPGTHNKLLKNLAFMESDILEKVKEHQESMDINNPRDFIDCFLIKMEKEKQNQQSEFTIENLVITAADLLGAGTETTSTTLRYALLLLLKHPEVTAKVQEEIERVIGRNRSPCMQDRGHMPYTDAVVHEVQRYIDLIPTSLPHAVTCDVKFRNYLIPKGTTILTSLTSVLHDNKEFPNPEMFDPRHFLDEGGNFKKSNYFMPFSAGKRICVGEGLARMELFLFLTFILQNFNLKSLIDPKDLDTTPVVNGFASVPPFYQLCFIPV
Sequence of CYP2C9 (P11712 whole entry): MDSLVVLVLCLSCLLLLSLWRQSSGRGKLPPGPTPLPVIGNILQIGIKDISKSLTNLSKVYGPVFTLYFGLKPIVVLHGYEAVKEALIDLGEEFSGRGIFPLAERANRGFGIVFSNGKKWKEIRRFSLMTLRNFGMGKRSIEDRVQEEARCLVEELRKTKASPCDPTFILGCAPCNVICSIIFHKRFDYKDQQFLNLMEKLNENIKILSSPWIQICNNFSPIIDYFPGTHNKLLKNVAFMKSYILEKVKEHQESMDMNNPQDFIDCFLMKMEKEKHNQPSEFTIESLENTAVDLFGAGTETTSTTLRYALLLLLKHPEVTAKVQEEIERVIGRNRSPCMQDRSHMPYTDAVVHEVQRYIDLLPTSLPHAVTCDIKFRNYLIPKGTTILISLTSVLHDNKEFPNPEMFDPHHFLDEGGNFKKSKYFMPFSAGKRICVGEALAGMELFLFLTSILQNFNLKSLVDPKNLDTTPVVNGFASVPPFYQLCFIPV

COc1cc2nccc(Oc3ccc(NC(=O)NC4CC4)c(Cl)c3)c2cc1C(N)=O [Lenvatinib, 4-(3-chloro-4(cyclopropylaminocarbonyl)aminophenoxy)-7-methoxy-6-quinolinecarboxamide]
inhibition of CYP2C9 (CYP2C9): inhibits | inhibition of CYP2D6 (CYP2D6): inhibits | events of posterior reversible encephalopathy syndrome (PRES) [1]: less than 1% | Median OS ([2]; in vivo): 13.6 months | Median PFS ([2]; mRECIST, independent review): 7.3 months | Objective response rate ([2]; mRECIST, independent review): 41% | inhibition of CYP1A2 (CYP1A2): inhibits | drug-drug interaction risk with midazolam (CYP3A4): no projected significant drug-drug interaction risk | induction of CYP3A (CYP3A [3]): induces | time to clinically meaningful deterioration of quality of life [4]: clinically meaningful delay in deterioration | inhibition of CYP2C19 (CYP2C19): inhibits | inhibition of CYP3A (CYP3A [5]): inhibits | treatment-related fatal cerebral hemorrhage [6]: 3 patients | treatment-related fatal hepatic failure [6]: 3 patients | treatment-related fatal respiratory failure [6]: 2 patients
